Laboratory results published in article PMC4373826, “Antiviral Effect of Methylated Flavonol Isorhamnetin against Influenza” (PLoS ONE, 2015).
Marks after values point to notes of the source that are not given here.

Legend:
Atg-5, Atg-7, and LC3B = assay: RT-PCR of autophagy-related genes; format: cell-based, canine; details: 50 μM
Method: MDCK cells were seeded in 6-well plates and incubated overnight for 80% confluence. After the medium was removed, the cells were washed twice with PBS and infected with the virus as described in the antiviral assay section. Total RNA was isolated using Trizol (Invitrogen, Waltham, MA, USA) according to the manufacturer’s instructions. Synthesis of cDNA was performed using 5 μg of total RNA with MMLV reverse transcriptase (Promega, Madison, WI, USA). The primer sequences used in our study were as follows: HA (forward, 5′-[…]-3′;reverse,5′-[…]-TGACACT-3′); NA (forward, 5′-[…]-3′; reverse,5′-[…]-3); ATG-5 (forward, 5′-[…]-AACAG-3′; reverse, 5′-[…]-3′); ATG-7 (forward, 5′-[…]-3′; reverse, 5′-[…]-A-3′); LC3B (forward, 5′-[…]-3′; reverse, 5′-CTGG-[…]-3′); and GAPDH (forward, 5′-[…]-GGAGC-3′; reverse, 5′-[…]-3′).The expression of mRNA was normalized to that of the control housekeeping gene, GAPDH.

[1] = molecular target: T1, influenza virus neuraminidase (Influenza A virus, UniProt P03468); assay: Neuraminidase inhibition (NAI) assay; format: biochemical; details: 50 μM
T1 construct: mixed with an equal volume of the virus solution (50 μL); host or cells: whole virus suspension
T1 sequence (P03468 whole entry): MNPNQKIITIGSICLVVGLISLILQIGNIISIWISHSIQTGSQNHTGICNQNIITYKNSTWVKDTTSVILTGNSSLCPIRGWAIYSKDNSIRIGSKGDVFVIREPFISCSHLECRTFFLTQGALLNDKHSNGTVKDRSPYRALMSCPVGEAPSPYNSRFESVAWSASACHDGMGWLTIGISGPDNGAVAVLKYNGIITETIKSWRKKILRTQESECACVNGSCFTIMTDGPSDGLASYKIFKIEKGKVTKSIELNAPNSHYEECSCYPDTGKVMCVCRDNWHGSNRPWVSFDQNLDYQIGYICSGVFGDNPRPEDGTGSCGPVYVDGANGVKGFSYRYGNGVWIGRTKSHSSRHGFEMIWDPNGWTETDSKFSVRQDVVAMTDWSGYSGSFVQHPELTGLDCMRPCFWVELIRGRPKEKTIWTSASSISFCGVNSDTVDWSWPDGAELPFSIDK
Method: The neuraminidase inhibition assay was carried out to examine the inhibitory effect of the tested flavonoids on influenza virus neuraminidase activity as described previously. The flavonoid compounds were used at concentrations of 10 μM, 50 μM, and 100 μM. Tamiflu, a specific NA blocker, was used as a control with a dose of 1 μM. This assay was conducted in 96-well plates; each flavonoid concentration (50 μL) was mixed with an equal volume of the virus solution (50 μL) using reaction buffer (sodium acetate buffer 150 mM, pH 7, and 1 mM calcium chloride) and incubated for 30 minutes at 37°C. For initiation of the enzymatic reaction, we added 100 μL of the substrate solution (4-MU-NANA; (2′-(4-methylumbelliferyl)-α-d-N-acetylneuraminic acid, sodium salt hydrate; Sigma-Aldrich) that dissolved in the enzyme buffer [33 mM 2-(N-morpholino) ethanesulfonic acid (MES), pH 6.5, and 4 mM CaCl2] to the final concentration of 100 μM to the flavonoids and the virus mixture (100 μL). This reaction mixture was protected from light and incubated at 37°C for 2 hr under shaking condition. For stopping of the reaction, we added the stop solution (150 μl of 0.014 N NaOH in 83% ethanol) to each well. The fluorescence of the released 4-methylumbelliferone fluorescence was measured using a fluorescence plate reader (Molecular Devices, Sunnyvale, CA, USA) (excitation 365 nm, emission 460 nm). […]

[2] = tested on: influenza viral genes HA and NA; assay: RT-PCR of viral HA and NA genes; format: cell-based, influenza A virus
[3] = tested on: virus-induced ROS generation in MDCK cells; assay: Virus-induced ROS generation assay (H2DCFDA); format: cell-based, canine; details: 50 μM
Method: For the ROS generation assay, MDCK cells were seeded onto 24-well plates and incubated overnight for 80% confluence. The MDCK cells were infected with the virus as described previously and then treated with the flavonoids (post-treatment method). Intracellular ROS levels were detected using a cell-permeable oxidant-sensitive fluorescent probe, 2′, 7′-dichiorofluorescin diacetate (H2DCFDA, Molecular Probes, Eugene, OR, USA). The cells were incubated with 10 μM of H2DCFDA for 30 min at 37°C in the dark. After incubation, the cells were washed twice and covered with PBS. The average ROS generation was determined by fluorescent images that were captured using Nikon Eclipse TE2000-U fluorescence inverted microscope (Nikon, Tokyo, Japan). In this experiment, we used N-acetyl-L-cysteine (NAC; Sigma-Aldrich), a ROS scavenger reagent, and at a concentration of 15 mM as a positive control treatment.

[4] = tested on: influenza A/PR/8/34 (H1N1); assay: In ovo virus titer in embryonated chicken egg; format: in vivo
Method: Virus was serially diluted (10-fold serial dilution) and inoculated into the eggs, and then the virus titers were calculated as log10EID50/ml. At the cellular level, virus titration was determined via the hemagglutination assay (as described in detail in the WHO surveillance guidelines) and by the cytopathic effect (CPE) of MDCK cells induced by viral infection, and expressed as 50% tissue culture infectious doses (TCID50), which were calculated based on the method of Reed and Muench.In mice, 50% mouse lethal dose (MLD50) was defined as 50% egg infective dose (EID50) that led to 50% mice mortality that calculated according to Reed and Muench. The flavonoids quercetin, kaempferol, isorhamnetin, diosmetin, and eriodictyol were purchased from the Indofine Chemical Company, Hillsborough, NJ, USA. The flavonoids and PD-98059 (MEK inhibitor, Calbiochem, La Jolla, CA, USA) were dissolved in dimethylsulfoxide (DMSO, Sigma-Aldrich).The final concentration of DMSO in the culture media is 0.2% (v/v). Tamiflu (Oseltamivir, 75 mg) was purchased from Roche-Korea (Seoul, South Korea) Co. Ltd.

[5] = tested on: influenza A/PR/8/34 (H1N1); assay: in vitro; details: dog, SI (selective index, CC50/EC50)

COc1cc(-c2oc3cc(O)cc(O)c3c(=O)c2O)ccc1O [Isorhamnetin, isorhamnetin]
virus-induced overexpression of autophagy-related genes Atg-5, Atg-7, and LC3B (Atg-5, Atg-7, and LC3B): inhibited
NA activity [1]: significantly inhibited
expression of HA and NA [2]: markedly decreased
virus-induced ROS generation [3]: significant reduction
Virus titer (Embryonated chicken egg) [4]: 10^8 ^* EID50/ml
selectivity ratio ([5]; Co-treatment (2 hr)): > 9
selectivity ratio ([5]; Post-treatment): > 12
